Positions of bridges follow the written chain, without caps; N, C: chain ends. Non-standard residues stand in square brackets, D forms with d. Residues, ends and D or L forms follow the SMILES beside them. ξ: configuration not given here. *: point of attachment. ξNMePhe(4-NMe2) = CNC(Cc1ccc(N(C)C)cc1)C(=O)O; Picolinoyl(3-OH) = O=C(c1ncccc1O)*; ξPip(4-oxo) = O=C1CCNC(C(=O)O)C1; Phg = N[CH](C(=O)O)c1ccccc1; Abu = CC[CH](N)C(=O)O
Each compound was assayed against recombinant CpLDH protein (Cryptosporidium parvum, UniProt Q9GT92, F198L/K295E/R251K).

Compound	MEAN CpLDH INHIBITION (%)
COC(=O)c1ccc(NCc2cc(O)ccc2O)cc1 [NSC654705]	-2.14
COc1cc(OC)c(OC)cc1/C=C/c1ccnc2ccccc12 [NSC80756]	-22.71
O=C1C(C(O)(C(F)(F)F)C(F)(F)F)CCC1C(O)(C(F)(F)F)C(F)(F)F (stereo not shown) [NSC664181]	-5.59
CC1=NN(C(=O)c2ccncc2)C(=O)C1N=Nc1ccc(F)cc1 (stereo not shown) [NSC621094]	-33.52
COC(=O)c1[nH]c(=S)[nH]c(=O)c1-c1ccc(Cl)cc1 [NSC635140]	-15.60
COc1ccc(N=Cc2ccc(N(CCC#N)S(=O)(=O)c3ccccc3)cc2C)cc1 [NSC643599]	-33.57
[N-]=[N+]=NC1=NNC2(C(=O)N1)c1ccccc1-c1ccccc12 [NSC666168]	-17.65
Nc1nc(N)c(-c2cccc(C(F)(F)F)c2)c(Cc2cccc(C(F)(F)F)c2)n1 [NSC71669]	-53.065
CCOC(=O)c1ccc(-c2cc(C)no2)[nH]1 [NSC693053]	-6.53
CCOC(=O)CCn1ncc(Cl)c(Cl)c1=O [NSC634471]	-23.23
COc1ccc2nc3cc([N+](=O)[O-])ccc3c(NNc3ccccc3)c2c1 [NSC689872]	-7.48
CCCCCCCCCCCCCCCC[N+](C)(C)CCl.[Cl-] [NSC672904]	-0.06
C[C@H](CSC(=O)c1ccccc1)C(=O)N1c2ccccc2C[C@H]1C(=O)O [NSC604535]	-8.81
CC(C)OP(=O)(OC(C)C)C(N(C)C)P(=O)(OC(C)C)OC(C)C.[Cl][Sn]([Cl])([Cl])[c]1ccccc1 [NSC645567]	-28.84
Cc1c2c(cc3c1[nH]c1ccccc13)C=NCC2 [NSC86100]	-9.40
Nc1nc(SCc2ccccc2Cl)c2ncn(C3OC(CO)C(O)C3O)c2n1 (stereo not shown) [NSC40666]	-57.18
O=C(CC1(O)C(=O)Nc2c(Cl)cc(Cl)cc21)c1cccc([N+](=O)[O-])c1 (stereo not shown) [NSC635438]	-43.53
N#CC(=S)Nc1ccc(Cl)c(Cl)c1 [NSC379531]	-50.91
COc1cc(O)c2c(c1)C(=O)c1cc3c(c(O)c1C2=O)[C@@H](O[C@@H]1O[C@@H](C)[C@H](O)[C@@H](O)[C@H]1OC)[C@H](OC)[C@](C)(O)C3=O [NSC93419]	-51.14
C[C@@H]1C[C@H]2OC(=O)[C@@]3(C)CCC[C@@](C)([C@@H]23)[C@@]1(O)CCc1ccoc1 [NSC36693]	-16.69
N#CC(c1ccccc1)N(CCCCCCN(C(=O)c1ccccc1)C(C#N)c1ccccc1)C(=O)c1ccccc1 (stereo not shown) [NSC681744]	-15.26
Cc1ccc([S+](c2ccccc2)c2cc(C)ccc2C)cc1.O=C(OC(C(=O)[O-])C(OC(=O)c1ccccc1)C(=O)O)c1ccccc1 (stereo not shown) [NSC116693]	-151.85
Cc1ccccc1NC(=O)C(=O)C(C(=O)c1ccccc1F)C1OC(=O)c2ccccc21 (stereo not shown) [NSC641228]	-51.30

Compound	MEAN CpLDH INHIBITION (%)
CN(C)c1cccc(F)c1C(=O)NC(=O)Nc1ccc(Cl)cc1 [NSC603108]	-29.93
COc1ccc(-n2/c(=N/C(=S)N(C)C)ss/c2=N\C(=S)N(C)C)cc1 [NSC622586]	-55.77
CC(=O)SC(SC(C)=O)SC(C)=O [NSC637833]	-64.71
O=C1c2cccc(O)c2C(=O)c2c(O)cccc21 [NSC7210]	-48.97
CC(=O)O[C@@H]1[C@@H](O)[C@H](O[C@H]2[C@H](OC(=O)[C@H]3CC[C@H]4[C@@H](C3)O[C@@]3(C[C@H](OC(=O)/C=C/c5ccccc5)[C@H](C)CO3)[C@]43CO3)O[C@H](C)[C@@H](O)[C@@H]2OC(C)=O)O[C@H](C)[C@H]1O [NSC328426]	-30.81
CC1=C\C(O)CC(=O)Cc2nc(co2)C(=O)N2CCC=C2C(=O)OC(C(C)C)C(C)/C=C/C(=O)NC/C=C\1.CCC1NC(=O)C(NC(=O)c2ncccc2O)C(C)OC(=O)C(c2ccccc2)NC(=O)C2CC(=O)CCN2C(=O)C(Cc2ccc(N(C)C)cc2)N(C)C(=O)C2CCCN2C1=O (stereo not shown) [NSC125176] ({Picolinoyl(3-OH)}-T[Abu]P[ξNMePhe(4-NMe2)][ξPip(4-oxo)][Phg]; ester 1-C; configuration not given here)	-0.47
CN(C)c1ccc(/C=C2\CCc3ccccc3C2=O)cc1Br [NSC643162]	-31.17
CN(C)c1ccc(/C=C2\Cc3ccccc3C2=O)cc1Br [NSC643163]	-30.02
CO[C@H]1/C=C\C=C(/C)C(=O)NC2=CC(=O)C(N)=C(C[C@@H](C)C[C@H](OC)[C@H](O)[C@@H](C)/C=C(\C)[C@@H]1OC(N)=O)C2=O [NSC255109]	-205.22
CC12CC(Br)(Br)C(=O)C3C1CCCC32 [NSC624358]	-23.30
CCC1CN2CCc3cc(OC)c(OC)cc3C2CC1CC1c2cc(OC)c(OC)cc2CCN1C(=O)C(Cc1c[nH]c2ccccc12)NC(=O)OC(C)(C)C (stereo not shown) [NSC109350]	-1.18
Nc1ncnc2c([C@@H]3O[C@H](CO)[C@@H](O)[C@H]3O)c[nH]c12 [NSC352890]	-27.24
O=C1C=C2C=CC3CC2(O1)C1CCCCN31 (stereo not shown) [NSC107415]	-39.15
CC(=O)O[C@]1(C(C)=O)CC[C@H]2[C@@H]3C[C@H](C)C4=CC(=O)C=C[C@]4(C)[C@@]3(F)[C@@H](O)C[C@@]21C [NSC47438]	-57.83
COC(=O)NC1C(C)OC(OC2C/C=C(/C)C3C=CC4C(OC5CC(OC6CCC(OC7CC(O)C(OC8CCC(O)C(C)O8)C(C)O7)C(C)O6)C(OC(C)=O)C(C)O5)C(C)CC(C)C4C3(C)/C(O)=C3/C(=O)OC4(CC(C=O)=CC(O)C4/C=C\2C)C3=O)CC1(C)[N+](=O)[O-] (stereo not shown) [NSC333856]	-2.71
O=C(ON=C1c2ccccc2C(Br)C(Br)c2ccccc21)c1ccccc1 (stereo not shown) [NSC670140]	-63.78
Br.CCN(CC)CC(C)(C)C(=O)/C=C/c1ccc(C)cc1 [NSC382766]	-40.98
C[C@@H]1CC[C@H]2C(C)(C)[C@H]3C[C@@]12CC[C@@]3(C)O [NSC403883]	-51.63
CCCCCn1cc2c3c(cccc31)C1C=C(C)CN(C)[C@@H]1C2.Cc1ccc(C(=O)OC(C(=O)O)C(OC(=O)c2ccc(C)cc2)C(=O)O)cc1 (stereo not shown) [NSC600681]	-36.35
CC(=O)OC(C)(C)/C=C/C(=O)[C@](C)(O)[C@H]1[C@H](O)C[C@@]2(C)[C@@H]3CC=C4[C@@H](C[C@H](O)C(=O)C4(C)C)[C@]3(C)C(=O)C[C@]12C [NSC49451]	-57.10
C[C@H]1CCC/C=C/[C@@H]2C[C@H](O)C[C@H]2[C@H](O)/C=C/C(=O)O1 [NSC89671]	-22.45
Cc1c2ccncc2cc2c1[nH]c1ccccc12 [NSC87206]	-25.74
N#Cc1ccccc1NC(=O)C(=O)C(C(=O)c1ccccc1F)C1OC(=O)c2ccccc21 (stereo not shown) [NSC640974]	-7.97

Compound	MEAN CpLDH INHIBITION (%)
NS(=O)(=O)c1nc2nc[nH]c(=O)c2[nH]1 [NSC635448]	-5.65
CCN(CC)CC.CCOc1ccc(NC(=O)N=C=[N-])cc1.[CH-]1CCCCC1.[CH-]1CCCCC1.[CH-]1CCCCC1.[Cl-].[Sn+4] [NSC353527]	-42.92
CCCCn1c2c(n(CCCC)c1=S)-c1c(n(CCCC)c(=S)n1CCCC)SSSS2 [NSC700582]	-83.75
COc1c(O[C@@H]2O[C@H](CO)[C@@H](O)[C@H](O)[C@H]2O)cc2c(c1OC)-c1ccc(OC)c(=O)cc1[C@@H](NC(C)=O)CC2 [NSC32992]	-5.35
COc1ccc2oc(-c3ccncc3)cc(=O)c2c1 [NSC54650]	-73.33
O=C(CC1(O)C(=O)Nc2c(Cl)cc(Cl)cc21)c1cccc2ccccc12 (stereo not shown) [NSC635328]	-47.14
Cc1nc(-n2nc(-c3ccccc3)cc2-c2ccccc2)sc1C(=O)/C=C/c1ccc(Cl)c(Cl)c1 [NSC640584]	-6.68
COC(=O)C1=CC(=O)C(C(=O)Nc2ccc(OC)cc2)C(c2ccccc2)O1 (stereo not shown) [NSC634473]	-29.85
CC(=O)OCc1cc(=O)n(C)c2c3c4c(cc12)c(C)cc(=O)n4CO3 [NSC157004]	-1.50
Cc1nc(Nc2ccc(Cl)c(Cl)c2)sc1C(/C=C/c1ccc2c(c1)OCO2)=N/Nc1ccc([N+](=O)[O-])cc1[N+](=O)[O-] [NSC640335]	-79.51
O=[N+]([O-])[O-].O=[N+]([O-])[O-].O=[N+]([O-])[O-].[Ga+3] [NSC15200]	-34.76
COC(=O)NC1C(C)OC(OC2C/C=C(/C)C3C=CC4C(OC5CC(OC6CC(O)C(OC7CC(O)C(OC)C(C)O7)C(C)O6)C(O)C(C)O5)C(C)CC(C)C4C3(C)/C(O)=C3\C(=O)OC4(CC(C)C(CO)=CC4/C=C\2C)C3=O)CC1(C)[N+](=O)[O-] (stereo not shown) [NSC363182]	-79.07
Cc1[nH]c(=O)nc(N/N=C/c2ccc(Cl)cc2)c1C(=O)Nc1ccc(Cl)cc1 [NSC624947]	-0.76
COC1OC(COCc2ccc(Cl)cc2)C(OCc2ccc(Cl)cc2)C1O (stereo not shown) [NSC626120]	-0.60
N#CC1CC(c2ccccc2)Nc2cc(Cl)ccc2N1 (stereo not shown) [NSC155595]	-11.00
O=C(N=Nc1c(O)[nH]c2c(Cl)cc(Cl)cc12)c1ccccc1O [NSC320864]	-26.08
CCC12C[N+]3([O-])CCc4c([nH]c5ccccc45)C(C(=O)OC)(c4cc5c(cc4OC)N(C)C4C(O)(C(=O)OC)C(OC(C)=O)C6(CC)C=CCN7CCC54C76)CC(C3)C1O2 (stereo not shown) [NSC304421]	-126.27
O=C1NC(c2cccc3ccccc23)Nc2ccc(Cl)cc21 (stereo not shown) [NSC175636]	-17.73
CN1CCN(CCNc2ccc(CO)c3sc4ccccc4c(=O)c23)CC1 [NSC166381]	-6.81
COc1cccc2c1C(=O)c1c(O)c3c(c(O)c1C2=O)C[C@@](O)(C(C)=O)C[C@@H]3OC1CC(N(Cc2ccccc2)Cc2ccccc2)C(O)C(C)O1.Cl (stereo partly shown) [NSC268242]	-40.28
NC(=O)NO [NSC32065]	-2.35
